Laboratory results as given in patent publication US7910729B2, “Azulenyl nitrone spin trapping agents, methods of making and using same” (The Florida International University Board of Trustees, priority 2004, dated 2011).

Assays:
aged rats = conditions: chronic treatment; cited from earlier work
[1] = test system: human diploid fibroblast cells; conditions: cited from earlier work
aged animal model = conditions: daily intraperitoneal injection, male and female populations; cited from earlier work
[2] = Antioxidant assay: AIBN-initiated oxidation of cumene to cumene hydroperoxide, followed by 1H NMR; type: physicochemical; conditions: atmospheric oxygen, 37° C., FIG. 1
Protocol: In the following example, comparative testing of the antioxidant activity of azulenyl nitrone compounds of the invention against a control, was performed. The assay was based on the well-established oxidation of cumene to cumene hydroperoxide by atmospheric oxygen at 37° C. in the presence of the free radical initiator AIBN (Blanchard, H. S. J. Am. Chem. Soc. (1959) 81:4548; Characterization of products formed during the autoxidation of beta carotene. Handelman, G. J., van Kujik, F. J. G. M., Chatterjee, A., Krinsky, N. I. Free Rad. Biol. Med. (1991) 10: 427-37). The progress of the peroxidation reaction is conveniently followed and quantified by 1H NMR spectroscopy by monitoring the appearance and increasing integration of the singlet arising from the methyl groups of cumene hydroperoxide. The use of a long, low power, selective pulse (Shaped radiofrequency pulses in high resolution NMR. Freeman, R. J. Prog. Nuc. Mag. Spec. (1998) 32:59) allowed the growth of the cumene hydroperoxide methyl group singlet to be accurately measured in the presence of a huge excess of cumene. This was shown by using known concentrations of commercially available cumene hydroperoxide to calibrate the peak areas.

[3] = aqueous solution at pH 7 and 20° C.; cited from earlier work
[4] = test system: lipopolysaccharide (LPS) administered to rats; conditions: cited from earlier work

For `CC(C)(C)[N+]([O-])=Cc1ccccc1` [PBN, alpha-phenyl N-tert-butylnitrone], the “age-related changes in cognitive performance” value (aged rats) is given as “benefit (i.e., improve)”, the onset of senescence [1] is given as “effectively delayed the onset of senescence” and the lifespan (aged animal model) is given as “remarkable extension of the lifespan”.

With `Cc1ccc(C(C)C)cc2c(/C=[N+](\[O-])C(C)(C)C)cc(/C=C/c3cc(/C=[N+](\[O-])C(C)(C)C)c4cc(C(C)C)ccc(C)c3-4)c1-2` [STAZN, Stilbazulenyl Nitrone] the “potency as nitrone-based chain breaking antioxidants / free-radical scavenging/antioxidant activity” value [2] was “remarkable potency”.

In the case of `Cc1c(C)c2c(c(C)c1O)CC[C@@](C)(CCC[C@H](C)CCC[C@H](C)CCCC(C)C)O2` [vitamin E, alpha-tocopherol], the “age-related changes in cognitive performance” value (aged rats) is listed as “benefit (i.e., improve)” and the “one-electron oxidative potential (vs. NHE)” value [3] is listed as 0.48 V.

In the case of `CC1(C)Cc2ccccc2C=[N+]1[O-]` [MDL 101,002], the LPS-induced leukopenia [4] is listed as “failed to prevent leukopenia”, the LPS-induced pulmonary edema [4] is listed as “prevented pulmonary edema” and the LPS-induced thrombocytopenia [4] is listed as “partially reduced thrombocytopenia”. For the same compound, the “organ dysfunction and cytokine secretion induced by LPS” value [4] was “reduces”.

In the case of `Cc1ccc(C(C)C)cc2c(C=C3SCCCS3)cc(/C=C/c3cc(/C=[N+](\[O-])C(C)(C)C)c4cc(C(C)C)ccc(C)c3-4)c1-2` [STNXY], the “potency as nitrone-based chain breaking antioxidants / free-radical scavenging/antioxidant activity” value [2] is reported as “remarkable potency”.

In the case of `COC=Cc1cc(/C=C/c2cc(/C=[N+](\[O-])C(C)(C)C)c3cc(C(C)C)ccc(C)c2-3)c2c(C)ccc(C(C)C)cc1-2` [I], the melting point is reported as 235 °C (dec.).
